{"source": "paper PMC5614969", "about": "“High-Affinity Functional Fluorescent Ligands for Human β-Adrenoceptors” (Scientific Reports, 2017)", "key": {"β1AR": {"biological_target": "β1AR (Homo sapiens, UniProt P08588)", "sequence (P08588 whole entry)": "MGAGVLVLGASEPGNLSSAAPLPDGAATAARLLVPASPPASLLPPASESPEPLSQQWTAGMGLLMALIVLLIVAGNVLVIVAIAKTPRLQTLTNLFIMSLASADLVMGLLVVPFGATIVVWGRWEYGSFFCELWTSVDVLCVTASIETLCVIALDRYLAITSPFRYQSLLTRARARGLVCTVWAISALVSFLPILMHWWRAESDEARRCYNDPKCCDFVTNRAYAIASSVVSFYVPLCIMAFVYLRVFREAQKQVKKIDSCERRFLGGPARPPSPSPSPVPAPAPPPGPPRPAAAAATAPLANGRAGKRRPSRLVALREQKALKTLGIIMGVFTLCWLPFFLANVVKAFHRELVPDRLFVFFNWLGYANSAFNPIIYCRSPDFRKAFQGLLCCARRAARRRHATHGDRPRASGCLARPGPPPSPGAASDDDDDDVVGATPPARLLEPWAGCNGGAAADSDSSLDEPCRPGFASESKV", "experiment": "TR-FRET receptor-ligand saturation binding assay, Tag-lite β1AR cells", "conditions": "2 h at room temperature, read-out: Kd app", "description": "(§1) To confirm whether the affinity of carazolol-KK114 (24) is sufficient for the intended imaging experiments and to evaluate its β2/β1AR selectivity, we performed a TR-FRET assay in Tag-lite β1AR or β2AR transfected cells (Cisbio) labeled with Tb^3+ cryptate (Lumi4-Tb) (Fig. 3c)[39]. […] (Fig. 3d, Supplementary Fig. 5b). The high affinities of both fluorescent ligands enabled the imaging experiments.\nK d determination was performed on Tag-lite β1AR (Cisbio, Cat. No. C1TT1BETA1) or β2AR (Cisbio, Cat. No. C1TT1BETA2) Tb^3+ cryptate labeled transfected cells. The β1AR or β2AR cells labeled with SNAP-Terbium interact with the specific ligand labeled with the corresponding fluorophore. […] 20 µl of a fluorescent probe or control compound in Tag-lite buffer was added to each well and incubated for 2 h at room temperature (20 °C) before readout. FRET readout was performed on a multiwell plate reader Spark 20 M (Tecan) at room temperature. […] The ratio of the acceptor and donor emission signals was calculated for each individual well using equation (3):3 Ratio=Signal655nm−BackgroundSignal/Signal620nm−BackgroundSignal\nLuminescence background signal was measured in wells containing 40 µl of Tag-lite buffer only. Specific binding was calculated by subtracting nonspecific binding ratio from total binding ratio at each fluorescent ligand concentration. […]"}, "[1]": {"experiment": "Fluorescence increase upon addition of SDS to probe solutions", "type": "physicochemical", "conditions": "addition of 0.1% SDS to ligand in PBS pH 7.4 with 1 mg/ml BSA; mean ± SD, n=3", "description": "Fluorescence spectra of 1 µM solution of fluorescent dyes and ligands in PBS pH 7.4, PBS pH 7.4 + 1 mg/ml BSA (Sigma) and with or without 0.1% SDS (Acros Organics) were recorded on a multiwell plate reader Spark 20 M (Tecan) in half-area black 96-well plates (Greiner Bio-One, cat. 675076) at room temperature (25 °C) after 2 h incubation. Fluorescence emission was recorded from 600 nm to 800 nm with excitation at 580 nm. The emission bandwidth for all measurements was set to 5 nm. The spectra were averaged from 3 individual experiments. Ratios F(BSA+SDS)/F(BSA) of fluorescence signals at 635 nm for 610CP, 645 nm for BODIPY 630/650-X and 655 nm for KK114 conjugates were calculated. The obtained results are summarized (Table 1 and Supplementary Fig. 7)."}, "β2AR [2]": {"biological_target": "T1, β2AR (Homo sapiens, UniProt P07550)", "T1 sequence (P07550 whole entry)": "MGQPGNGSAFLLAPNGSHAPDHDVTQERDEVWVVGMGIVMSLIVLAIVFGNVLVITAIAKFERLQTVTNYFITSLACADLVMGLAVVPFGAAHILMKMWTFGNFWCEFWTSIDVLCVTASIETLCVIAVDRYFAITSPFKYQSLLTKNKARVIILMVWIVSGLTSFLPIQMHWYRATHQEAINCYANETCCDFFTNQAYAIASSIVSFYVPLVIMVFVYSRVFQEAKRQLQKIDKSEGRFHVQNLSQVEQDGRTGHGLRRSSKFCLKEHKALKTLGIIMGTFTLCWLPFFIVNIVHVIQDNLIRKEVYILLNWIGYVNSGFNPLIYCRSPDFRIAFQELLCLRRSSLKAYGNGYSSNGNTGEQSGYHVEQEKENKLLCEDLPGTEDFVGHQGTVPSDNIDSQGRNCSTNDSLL", "experiment": "TR-FRET receptor-ligand saturation binding assay, Tag-lite β2AR cells", "conditions": "for binding selectivity β2AR over β1AR: TR-FRET assay, ratio of Kd app; for Kd: β2AR, 2 h at room temperature, read-out: Kd app", "description": "as §1\nK d determination was performed on Tag-lite β1AR (Cisbio, Cat. No. C1TT1BETA1) or β2AR (Cisbio, Cat. No. C1TT1BETA2) Tb^3+ cryptate labeled transfected cells. The β1AR or β2AR cells labeled with SNAP-Terbium interact with the specific ligand labeled with the corresponding fluorophore. The fraction of bound ligand is proportional to the FRET signal. Donor Tb^3+ cryptate: exc. 340 nm, em. 490 nm, 546 nm, 583 nm, 620 nm; acceptor KK114: exc. 630 nm, em. 655 nm. The cells were thawed and suspended in 4.5 ml Tag-lite buffer (Cisbio, Cat. No. LABMED) according to the product information and transferred to half-area white polystyrene 96 well plates (Sigma, Cat. No. CLS3693) by 20 µl per well. 20 µl of a fluorescent probe or control compound in Tag-lite buffer was added to each well and incubated for 2 h at room temperature (20 °C) before readout. FRET readout was performed on a multiwell plate reader Spark 20 M (Tecan) at room temperature. […] All probe and control compound dilutions were prepared in DMSO, so that the final DMSO concentration was kept constant throughout the titration series. The ratio of the acceptor and donor emission signals was calculated for each individual well using equation (3):3 Ratio=Signal655nm−BackgroundSignal/Signal620nm−BackgroundSignal\nLuminescence background signal was measured in wells containing 40 µl of Tag-lite buffer only. Specific binding was calculated by subtracting nonspecific binding ratio from total binding ratio at each fluorescent ligand concentration. K d ^app is determined by fitting data using GraphPad Prism 6 to one site specific binding with Hill slope equation (4):4 Specificsingalratio=A∗[probe]^h/(Kdapp)^h+[probe]^h\nA is amplitude of specific signal ratio, [probe] - probe concentration, K d ^app - the ligand concentration needed to achieve a half-maximum binding at equilibrium, h - the Hill slope."}, "β2AR [3]": {"biological_target": "T1, β2AR", "experiment": "cAMP FRET sensor assay, competitive displacement of isoprenaline by antagonists in HEK293 cells", "type": "cell-based", "description": "The culture was maintained by subculturing the cells every 4 to 5 days using the standard trypsinization procedure. Before measurements, cells were trypsinated and transferred in a 96-well glass bottom plate (MatTek Corporation; Cat. No. P96GC-1.5–5-F) to contain 10,000–30,000 cells per well in 200 µL of DMEM media. After 24 h incubation in 5% CO2 at 37 °C, the cells were washed with HBSS pH 7.2 (200 µL), and the wells were filled with 200 µL HBSS. The DMSO stock solutions of the fluorescent probes were diluted 5,000 times in HBSS and used in experiments. In the antagonist inhibition experiment, we used β1 and β2 adrenoceptor agonist isoprenaline (abcr GmbH) as a positive control causing cAMP elevation. […] The fluorescent ligand solutions of different concentrations in HBSS were premixed with the isoprenaline solution. 50 µL of a final solution was added to each well and the measurement was started upon addition and continued for 1 h in 10 min intervals between the readouts (inclusive).\nThe ligands were added using an automated pipette to initiate the sensor response. FRET readout from the cAMP sensor was performed on a multiwell plate reader Spark 20 M (Tecan) at room temperature (25 °C). Fluorescence readout amplitudes were calculated from time series for different ligand concentrations, following background subtraction (media only). […] Data were derived from 3 independent experiments and each independent experiment was performed in triplicate.\nSensor response R(CFP/FRET) was calculated using (1):1 R(CFP/FRET)=(FimTurquoise−FbkgmTurquoise)/(FiFRET−FbkgFRET) where F i ^mTurquoise – mTurquoise fluorescence intensity in the wells with cells; F bkg ^mTurquoise - mTurquoise fluorescence intensity in the control wells without cells; F i ^FRET – FRET signal intensity in the wells with cells; F bkg ^FRET – FRET signal intensity in the control wells without cells. For every result, R(CFP/FRET) ratio was normalized to the R(CFP/FRET) response of DMSO sample.\nK i ^app were calculated using the Cheng-Prusoff equation (2):2 Kiapp=IC50/[A]/EC50+1 where [A] – concentration of the isoprenaline; IC50 – fitted half maximal inhibitory concentration of labeled antagonist; EC50 – fitted half maximal response concentration of isoprenaline."}, "β2AR-YFP fusion protein": {"biological_target": "T2, β2AR-YFP fusion protein (Homo sapiens, UniProt P07550)", "T2 construct": "host or cells: U2OS", "T2 sequence (P07550 whole entry, the tested form may be a part)": "as the sequence (P07550 whole entry) above", "experiment": "Confocal imaging of living U2OS cells expressing β2AR-YFP (staining, internalization, competitive displacement, no-wash)", "type": "cell-based", "conditions": "90 min, 100 nM carazolol-KK114 (24), 5 nM ab118171, no washing"}}, "note": "Like-named read-outs stand apart in the source and are kept apart here.", "data": [{"smiles": "Cc1c(CCC(=O)NCCOCCOCCNC(=O)CCN(C)C(=O)c2c(F)c(F)c(F)c(F)c2C2=c3cc4c5c(c3Oc3c2cc2c6c3CCCN6C(C)(C)C=C2CS(=O)(=O)O)CCC[N+]=5C(C)(C)C=C4CS(=O)(=O)[O-])cccc1CC(C)(C)NCC(O)c1ccc(O)c2c1OCC(=O)N2", "note": "(stereo not drawn) [BI-PEG-KK114 (18)]", "values": [{"measurement": "Kd", "setting": "β1AR", "value": "63.4 ± 6.6", "unit": "nM"}, {"measurement": "Fluorescence increase (F BSA+SDS / F BSA)", "setting": "[1]", "value": "1.4±0.1"}, {"measurement": "binding selectivity β2AR over β1AR", "setting": "β2AR [2]", "value": "nine-fold"}, {"measurement": "Kd", "setting": "β2AR [2]", "value": "7.2 ± 0.6", "unit": "nM"}]}, {"smiles": "CN(CCC(=O)NCCOCCOCCOCCOCCC(=O)NCCC(C)(C)NCC(O)COc1cccc2[nH]c3ccccc3c12)C(=O)c1c(F)c(F)c(F)c(F)c1C1=c2cc3c4c(c2Oc2c1cc1c5c2CCCN5C(C)(C)C=C1CS(=O)(=O)O)CCC[N+]=4C(C)(C)C=C3CS(=O)(=O)[O-]", "note": "(stereo not drawn) [Carazolol-KK114 (24)]", "values": [{"measurement": "IC50", "setting": "β2AR [3]; 17 nM isoprenaline, 30 min incubation time, read-out: IC50", "value": "444 ± 79", "unit": "nM"}, {"measurement": "Ki", "setting": "β2AR [3]; Cheng-Prusoff from IC50 right after addition of ligands, 17 nM isoprenaline, read-out: Ki app (mean ± SD)", "value": "162 ± 76", "unit": "nM"}, {"measurement": "IC50", "setting": "β2AR [3]; displacement of 17 nM isoprenaline, readout immediately after addition of ligands (0 min), read-out: IC50 (mean ± SD)", "value": "2450 ± 494", "unit": "nM"}, {"measurement": "Ki", "setting": "β2AR [3]; measurement 30 min after addition of the ligands, read-out: Ki app", "value": "29.3 ± 15", "unit": "nM"}, {"measurement": "no-wash imaging staining", "setting": "β2AR-YFP fusion protein", "value": "specific staining"}, {"measurement": "Fluorescence increase (F BSA+SDS / F BSA)", "setting": "[1]", "value": "5.9±1.5"}, {"measurement": "binding selectivity β2AR over β1AR", "setting": "β2AR [2]", "value": "three-fold"}, {"measurement": "Kd", "setting": "β2AR [2]", "value": "14.7 ± 0.9", "unit": "nM"}]}]}
